Laboratory results as given in US20040242537A1, “Acetylation method of chitosan” (priority 2001, published 2004).

Conditions: pH 7

- solubility according to pH: rapid decrease in solubility
Substance: chitosan
